Data set [1] relates to N-methyl-N-nitrosourea (MNU)-induced photoreceptor cell degeneration mouse. Description: Electroretinogram (ERG) in MNU-induced photoreceptor cell degeneration mouse. It counts as in vivo, C57BL/6 mice. The note with it: MNU 60 mg/kg intraperitoneally, mice. How it is done: (§1) Six-week-old male C57BL/6 mice were purchased from Orient (Seongnam, Korea) and used after acclimatization for 1 week. N-methyl-N-nitrosourea (MNU, Sigma, USA) was prepared to a concentration of 1% in 0.05% acetic acid solution to induce damage and degeneration of photoreceptor cells among the morphologic changes in retinal tissue seen in macular degeneration, and 7-week-old male C57BL/6 mice were administered 1% MNU solution intraperitoneally at 60 mg/kg per animal. In the normal group, only an equivalent amount of 0.05% acetic acid was administered intraperitoneally. Aucubin was prepared by dissolving in sterile tertiary distilled water to a concentration of 15 mg/kg/day and administered orally once daily for 7 days starting on the same day as MNU administration. An electroretinogram (ERG) is a record of the electrical signals generated by the optic nerve in response to light and is used as an indicator of retinal damage or disease. The inventors measured the electroretinogram. […] After the pupils were dilated, an appropriate amount of 1% methylcellulose was applied to the eyes while maintaining body temperature, and a gold wire loop recording electrode was grounded to the cornea, a reference electrode was placed on the cheek area, and a ground electrode was grounded to the tail, and the ERG was measured using a Retiport (Roland consult, Germany). […]

Data set [2] relates to primary cultured retinal cells. Kind of data set: Cell viability (MTS assay) of primary cultured retinal cells. The conditions noted are these: 24 hours.
Description: Retinas were isolated by eye enucleation from C57BL/6 mice (Orient Bio, Seoul, Korea) and dissociated with papain for 15 minutes at 37° C. Neuronal basal medium (Gibco) containing ovomucoid (Sigma Aldrich) and DNase (Sigma Aldrich) was added, and cells were centrifuged at 100×g for 8 min. Cells were resuspended in the above medium without DNase. Retinal cells were maintained in neurobasal medium with L-glutamine and B27 supplement (Gibco). Retinal cells were identified by immunostaining for rhodopsin (a marker for membrane photoreceptor cells) and glial fibrillary acidic protein (Muller glia). The cultured cells contained 65% rod photoreceptor cells and 28% Muller glia. Retinal cells were plated (1*10^4 cells/well) in 96-well plates for 24 hours, and the medium was exchanged with different concentrations of aucubin in the presence or absence of MNU (100 μg/mL) and cultured for 24 hours. Cell viability was then examined using a cell proliferation assay reagent (MTS assay kit, Promega Corporation, Madison, WI, USA).
Data set [3] relates to N-methyl-N-nitrosourea (MNU)-induced photoreceptor cell degeneration mouse. Description: Histopathology (H&E), outer nuclear layer thickness of retinal tissue. The data set is classed as in vivo, C57BL/6 mice. The conditions noted are these: aucubin 15 mg/kg/day orally for 7 days; MNU 60 mg/kg intraperitoneally. On the procedure: as §1, with “Aucubin was prepared by dissolving in sterile tertiary distilled water to a concentration of 15 mg/kg/day and administered orally once daily for 7 days starting on the same day as MNU administration. An electroretinogram (ERG) is a record of the electrical signals generated by the optic nerve in response to light and is used as an indicator of retinal damage or disease.” left out
After the end of study drug (aucubin) administration, necropsy was performed and the eyes were enucleated, fixed in 10% neutralized formalin for 1 day, and embedded in paraffin to prepare slide sections. […] Photoreceptor cell damage & deformation was assessed by measuring the change in thickness of the outer nuclear layer (ONL) of retinal tissue. […]

For data set [4] the test system is unchanged. Kind of data set: TUNEL staining of retinal sections (anti-apoptotic effect). The conditions noted are these: aucubin 15 mg/kg/day orally for 7 days; versus MNU-treated group. It counts as in vivo, C57BL/6 mice. How it is done: as §1, with “An electroretinogram (ERG) is a record of the electrical signals generated by the optic nerve in response to light and is used as an indicator of retinal damage or disease.” left out
Retinal sections were made 4 μm thick. […] In the MNU-treated group, a number of apoptotic cells were observed, but these were mainly detected in the outer nuclear layer.

Data set [5] shares this test system. Description: 8-OHdG immunohistochemical staining of retinal sections (antioxidant effect). The note with it: aucubin 15 mg/kg/day orally for 7 days; compared to the MNU-treated group. It counts as in vivo, C57BL/6 mice. On the procedure:
as §1, with “Aucubin was prepared by dissolving in sterile tertiary distilled water to a concentration of 15 mg/kg/day and administered orally once daily for 7 days starting on the same day as MNU administration. An electroretinogram (ERG) is a record of the electrical signals generated by the optic nerve in response to light and is used as an indicator of retinal damage or disease.” left out
The formation of 8-hydroxydeoxyguanosine (8-OHdG) induced by the oxidation of guanine is a well-known marker for oxidative DNA damage. […] The Invision kit (DAKO, Carpinteria, CA, USA) detected signals visualized with aminoethylcarbazole. […]

Data set [6] concerns primary cultured retinal cells. Kind of data set: Oxidative stress (DCFH fluorescent probe) in primary cultured retinal cells. The note with it: aucubin in presence of MNU 100 μg/mL, 24 hours. It counts as cell-based, C57BL/6 mice.
The subject of data set [7] is primary cultured retinal cells. Description: Apoptosis (TUNEL staining) in primary cultured retinal cells. The data set is classed as cell-based, C57BL/6 mice. The note with it: aucubin in presence of MNU 100 μg/mL, 24 hours. On the procedure: Cells were resuspended in the above medium without DNase. […] MNU treatment was cytotoxic in retinal cells. […] Apoptotic cells were measured by TUNEL staining.

This note sets out measurements from US20240299433A1, “PHARMACEUTICAL COMPOSITION CONTAINING AUCUBIN FOR PREVENTING OR TREATING MACULAR DEGENERATION” (INDUSTRIAL COOPERATION FOUNDATION JEONBUK NATIONAL …, priority 2019, published 2024).

As for `CN(N=O)C(N)=O` [MNU, N-methyl-N-nitrosourea], in data set [1], the “reduction of a-wave amplitude” value was found to be 78% and the “reduction of b-wave amplitude” value came out at 63%. The “cell viability compared to control cells” value in data set [2] (100 μg/ml MNU alone) was “approximately 70%”.

Turning to `OCC1=C[C@@H](O)[C@@H]2C=CO[C@@H](O[C@@H]3O[C@H](CO)[C@@H](O)[C@H](O)[C@H]3O)[C@H]12` [aucubin], the “reduction of photoreceptor cell loss (ONL thickness)” value in data set [3] was determined as 9.8%+2.9%. Also, the “photoreceptor cell death (TUNEL-positive apoptotic cells) in retina” value in data set [4] is listed as “significantly prevented this cell death”. Also, the “8-OHdG levels (oxidative DNA damage) in retina” value in data set [5] is reported as “significantly reduced”. In addition, the “oxidative stress (DCFH dye)” value in data set [6] is “significantly decreased”. For the same compound, the “apoptotic cells (TUNEL staining)” value in data set [7] is given as “significantly decreased”. In addition, in data set [2] (various concentrations of aucubin, MNU 100 μg/mL), the “cell viability in presence of MNU” value is “cell viability was restored in a dose-dependent manner”.
